Results reported in PubChem BioAssay AID651630 (Sanford-Burnham Center for Chemical Genomics, 2012).
The source made the active and inactive calls.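 Rule for the calls: active = lipid-stain IC50 at or below a set limit, with nuclear-stain toxicity IC50 at least five times higher; inactive = the rest.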

Experiments:
[1] = system: TAG; test: triacylglycerol accumulation inhibitor potency, dose response, cell-based, panel, Nile Red and DAPI fluorescence, H9c2 (AID 651630); settings: H9c2 cells, Nile Red TAG fluorescence, oleic acid;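 note: cells exposed to compound overnight before fixation and staining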
[2] = system: DAPI; test: as above; settings: H9c2 cells, DAPI nuclear fluorescence (cytotoxicity counter-readout), oleic acid

| SMILES | IC50 ([1]; mean of runs) | IC50 ([1]; run 1) [µM] | IC50 ([1]; run 2) [µM] | IC50 cytotoxicity (DAPI nuclear signal decrease) ([2]; mean of runs) | IC50 cytotoxicity (DAPI nuclear signal decrease) ([2]; run 1) [µM] | IC50 cytotoxicity (DAPI nuclear signal decrease) ([2]; run 2) [µM] |
| --- | --- | --- | --- | --- | --- | --- |
| COc1cc(C(=O)N2CCN(c3cc(Cl)ccc3Cl)CC2)cc(OC)c1OC | > 25 µM (inactive) | > 25 | > 25 | > 25 µM (inactive) | > 25 | > 25 |
| COc1cc2c(cc1OC)C(C)N(C(=O)c1cc3c(C)cc(C)cc3[nH]1)CC2 (centres undefined) | 9.16 µM | 9.59 | 8.73 | > 25 µM (inactive) | > 25 | > 25 |
| Cc1ccc(NC(=O)c2nc[nH]c2C(=O)NCCCCNC(=O)c2[nH]cnc2C(=O)Nc2ccc(C)cc2)cc1 | 5.46 µM | 6.27 | 4.66 | > 25 µM (inactive) | > 25 | > 25 |
| COc1cccc(Cn2c3ccc(NC(=O)CCc4ccc(F)cc4)cc3c(=O)n2C)c1 | – | 20.9 | > 25 | > 25 µM (inactive) | > 25 | > 25 |
| Cc1ccc2oc(NC3=NC4(CCCC4)C4=C(CCCC4=O)N3)nc2c1 | 7.66 µM | 8.73 | 6.6 | > 25 µM (inactive) | > 25 | > 25 |
| CC(C)c1ccc(NC(=O)Nc2nc(C(N)COCc3ccccc3)cs2)cc1 (centres undefined) | – | > 25 | 14 | 20.2 µM (inactive) | 20.8 | 19.7 |
| COc1cc([C@@H]2c3cc4c(cc3[C@H](O)[C@H]3COC(=O)[C@H]23)OCO4)cc(OC)c1OC | > 25 µM (inactive) | > 25 | > 25 | > 25 µM (inactive) | > 25 | > 25 |
| CCOc1ccccc1-c1nc(-c2ccc(NC(=O)Cc3ccccc3OC)cc2)no1 | > 25 µM (inactive) | > 25 | > 25 | > 25 µM (inactive) | > 25 | > 25 |
| COc1ccc(NC(=O)N(C)[C@H]2C[C@H]3c4[nH]c5ccc(-c6ccc7c(c6)OCO7)cc5c4CCN3C[C@H]2[C@H](C)O)cc1 | 7.49 µM | 8.2 | 6.77 | > 25 µM (inactive) | > 25 | > 25 |
| COc1cc(C#Cc2c(-c3cncn3C)n(C)c3ccc(-c4ccc(OC)c(OC)c4)cc23)cc(OC)c1 | 8.76 µM | 8.47 | 9.05 | > 25 µM (inactive) | > 25 | > 25 |
| COc1ccccc1NC1=NC(c2ccc(Cl)cc2)N=C(N)N1 (centres undefined) | > 25 µM (inactive) | > 25 | > 25 | > 25 µM (inactive) | > 25 | > 25 |
| COc1cc(-c2cnc3c(NC=O)cc(-c4cccnc4)cn23)cc(OC)c1OC | 15.8 µM (inactive) | 14.5 | 17 | > 25 µM (inactive) | > 25 | > 25 |
| COc1cc(-c2ccc3oc(-c4cccc(C)c4)c(C#CC4(O)CCCCC4)c3c2)cc(OC)c1OC | 15.9 µM (inactive) | 14.2 | 17.6 | > 25 µM (inactive) | > 25 | > 25 |
| COc1ccc(NC(=O)C2(C)Cc3c(-c4ccc5c(c4)OCO5)ccnc3O2)cn1 (centres undefined) | > 25 µM (inactive) | > 25 | > 25 | > 25 µM (inactive) | > 25 | > 25 |
| Cn1nc(-c2ccc(Cl)cc2)c2cc(C(=O)NC3CC3)sc21 | 10.8 µM | 13 | 8.58 | > 25 µM (inactive) | > 25 | > 25 |
| CCCCN(C)C(=O)c1ccc(Nc2nc(C(N)Cc3ccc(C(F)(F)F)cc3)cs2)nc1 (centres undefined) | > 25 µM (inactive) | > 25 | > 25 | > 25 µM (inactive) | > 25 | > 25 |
